From patent US10499642B2, “Isoxazoline-substituted benzamides and analogues as insecticides” (SYNGENTA PARTICIPATIONS AG, priority 2015, dated 2019)
Read-outs that look alike come from different tables or passages of the source.

Key:
Assay type in all cases: in vivo
[1] = system: Plutella xylostella; test: Plutella xylostella (diamond back moth) artificial diet test; conditions: 120 h, read-out: effect in at least one of the two categories (mortality or growth inhibition)
Summary of the method: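 Artificial diet treated with aqueous compound solutions made from DMSO stocks, dried, then infested with L2 larvae (10 to 15 per well). Mortality and growth inhibition scored versus untreated controls 5 days after infestation. Application rate 200 ppm.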

[2] = system: Tetranychus urticae; test: Tetranychus urticae (two-spotted spider mite) bean leaf disc test; conditions: foliar, 192 h
Procedure: Tetranychus urticae (Two-Spotted Spider Mite):
Bean leaf discs on agar in 24-well microtiter plates were sprayed with aqueous test solutions prepared from 10′000 ppm DMSO stock solutions. After drying the leaf discs were infested with a mite population of mixed ages. The samples were assessed for mortality on mixed population (mobile stages) 8 days after infestation.

[3] = system: Myzus persicae; test: Myzus persicae (green peach aphid) sunflower leaf disc test; conditions: foliar, 144 h
Procedure: Myzus persicae (Green Peach Aphid):
Sunflower leaf discs were placed on agar in a 24-well microtiter plate and sprayed with test solutions at an application rate of 200 ppm. After drying, the leaf discs were infested with an aphid population of mixed ages. After an incubation period of 6 days after treatment, samples were checked for mortality. The following compounds gave at least 80% mortality of Myzus persicae: […]

[4] = system: Spodoptera littoralis; test: Spodoptera littoralis (Egyptian cotton leaf worm) cotton leaf disc test; conditions: foliar, 72 h, read-out: control (at least one of mortality, anti-feedant effect, and growth inhibition)
Summary of the method: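 Cotton leaf discs on agar were sprayed with aqueous dilutions of 10′000 ppm DMSO stocks, dried and infested with five L1 larvae. Mortality, anti-feedant effect and growth inhibition were scored against untreated samples 3 days after infestation. Control = any of these higher than untreated.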

[5] = system: Diabrotica Balteata; test: Diabrotica balteata (corn root worm) maize sprout test; conditions: 96 h, read-out: effect in at least one of the two categories (mortality or growth inhibition)
Summary of the method: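 Maize sprouts on agar were sprayed with aqueous test solutions made from 10′000 ppm DMSO stocks, dried, then infested with 6 to 10 L2 larvae per well. Mortality and growth inhibition versus untreated samples were assessed 4 days after infestation; application rate 200 ppm.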

[6] = system: Thrips tabaci; test: Thrips tabaci (onion thrips) sunflower leaf disc test; conditions: foliar, 144 h
Procedure: Thrips tabaci (Onion Thrips):
Sunflower leaf discs were placed on agar in 24-well microtiter plates and sprayed with aqueous test solutions prepared from 10′000 ppm DMSO stock solutions. After drying the leaf discs were infested with a thrips population of mixed ages. The samples were assessed for mortality 6 days after infestation.

[7] = application rate 200 ppm, artificial diet, L2 larvae, 5 days after infestation
[8] = application rate 200 ppm, bean leaf discs, mixed population (mobile stages), 8 days after infestation, read-out: mortality
[9] = application rate 200 ppm, sunflower leaf discs, population of mixed ages, 6 days after treatment, read-out: mortality
[10] = application rate 200 ppm, cotton leaf discs, L1 larvae, 3 days after infestation
[11] = application rate 200 ppm, maize sprouts, L2 larvae, 4 days after infestation
[12] = application rate 200 ppm, sunflower leaf discs, population of mixed ages, 6 days after infestation, read-out: mortality

CCOC1=NOC(N(C(=O)OC(C)(C)C)C(=O)c2ccc(C3=NO[C@@](c4cc(Cl)c(F)c(Cl)c4)(C(F)(F)F)C3)cc2C)C1 (stereo partly drawn) [Compound A132, tert-butyl N-[4-[(5S)-5-(3,5-dichloro-4-fluoro-phenyl)-5-(trifluoromethyl)-4H-isoxazol-3-yl]-2-methyl-benzoyl]-N-(3-ethoxy-4,5-dihydroisoxazol-5-yl)carbamate]
≥ 80%: percent effect (mortality or growth inhibition) at 200 ppm [1] | mortality at 200 ppm [2] | mortality at 200 ppm [3] | percent control (mortality, anti-feedant effect or growth inhibition) at 200 ppm [4] | percent effect (mortality or growth inhibition) at 200 ppm [5] | mortality at 200 ppm [6]

Cc1cc(C2=NO[C@@](c3cc(Cl)c(Cl)c(Cl)c3)(C(F)(F)F)C2)ccc1C(=O)NC1CC(OCC2(C)COC2)=NO1 (stereo partly drawn) [Compound A123, 2-methyl-N-[3-[(3-methyloxetan-3-yl)methoxy]-4,5-dihydroisoxazol-5-yl]-4-[(5S)-5-(3,4,5-trichlorophenyl)-5-(trifluoromethyl)-4H-isoxazol-3-yl]benzamide]
≥ 80%: percent effect (mortality or growth inhibition) at 200 ppm [1] | mortality at 200 ppm [2] | mortality at 200 ppm [3] | percent control (mortality, anti-feedant effect or growth inhibition) at 200 ppm [4] | percent effect (mortality or growth inhibition) at 200 ppm [5] | mortality at 200 ppm [6]

Cc1cc(C2=NO[C@@](c3cc(Br)cc(C(F)(F)F)c3)(C(F)(F)F)C2)ccc1C(=O)NC1CC(Cl)=NO1 (stereo partly drawn) [Compound A021, 4-[(5S)-5-[3-bromo-5-(trifluoromethyl)phenyl]-5-(trifluoromethyl)-4H-isoxazol-3-yl]-N-(3-chloro-4,5-dihydroisoxazol-5-yl)-2-methyl-benzamide]
≥ 80%: percent effect (mortality or growth inhibition) at 200 ppm [1, 7] | mortality at 200 ppm [2, 8] | mortality at 200 ppm [3, 9] | percent control (mortality, anti-feedant effect or growth inhibition) at 200 ppm [4, 10] | percent effect (mortality or growth inhibition) at 200 ppm [5, 11] | mortality at 200 ppm [6, 12]

CCOC1=NOC(NC(=O)c2ccc(C3=NO[C@@](c4cc(Cl)cc(Cl)c4)(C(F)(F)F)C3)cc2Cl)C1 (stereo partly drawn) [Compound A063]
≥ 80%: percent effect (mortality or growth inhibition) at 200 ppm [1] | mortality at 200 ppm [2] | mortality at 200 ppm [3] | percent control (mortality, anti-feedant effect or growth inhibition) at 200 ppm [4] | percent effect (mortality or growth inhibition) at 200 ppm [5] | mortality at 200 ppm [6]

Cc1cc(C2=NO[C@@](c3cc(Cl)c(F)c(Cl)c3)(C(F)(F)F)C2)ccc1C(=O)N[C@@H]1CC(Br)=NO1 (single isomer, unassigned) [Compound A147]
≥ 80%: percent effect (mortality or growth inhibition) at 200 ppm [1] | mortality at 200 ppm [2] | mortality at 200 ppm [3] | percent control (mortality, anti-feedant effect or growth inhibition) at 200 ppm [4] | percent effect (mortality or growth inhibition) at 200 ppm [5] | mortality at 200 ppm [6]

CCC1=NOC(N(C=O)C(=O)c2ccc(C3=NO[C@@](c4cc(Cl)cc(Cl)c4)(C(F)(F)F)C3)cc2C)C1 (stereo partly drawn) [Compound A139]
≥ 80%: percent effect (mortality or growth inhibition) at 200 ppm [1] | mortality at 200 ppm [2] | mortality at 200 ppm [3] | percent control (mortality, anti-feedant effect or growth inhibition) at 200 ppm [4] | percent effect (mortality or growth inhibition) at 200 ppm [5] | mortality at 200 ppm [6]

CCOC1=NOC(NC(=O)c2ccc(C3=NO[C@@](c4cc(Cl)cc(C(F)(F)F)c4)(C(F)(F)F)C3)cc2Cl)C1 (stereo partly drawn) [Compound A066]
≥ 80%: percent effect (mortality or growth inhibition) at 200 ppm [1] | mortality at 200 ppm [2] | mortality at 200 ppm [3] | percent control (mortality, anti-feedant effect or growth inhibition) at 200 ppm [4] | percent effect (mortality or growth inhibition) at 200 ppm [5] | mortality at 200 ppm [6]

Cc1cc(C2=NO[C@@](c3cc(Cl)cc(Cl)c3)(C(F)(F)F)C2)ccc1C(=O)N[C@@H]1CC(C(F)(F)F)=NO1 (single isomer, unassigned) [Compound A154]
≥ 80%: percent effect (mortality or growth inhibition) at 200 ppm [1] | mortality at 200 ppm [2] | mortality at 200 ppm [3] | percent control (mortality, anti-feedant effect or growth inhibition) at 200 ppm [4] | percent effect (mortality or growth inhibition) at 200 ppm [5] | mortality at 200 ppm [6]

Cc1cc(C2=NO[C@@](c3cc(Cl)c(F)c(Cl)c3)(C(F)(F)F)C2)ccc1C(=O)NC1CC(OCC(F)(F)C(F)(F)F)=NO1 (stereo partly drawn) [Compound A102]
≥ 80%: percent effect (mortality or growth inhibition) at 200 ppm [1] | mortality at 200 ppm [2] | mortality at 200 ppm [3] | percent control (mortality, anti-feedant effect or growth inhibition) at 200 ppm [4] | percent effect (mortality or growth inhibition) at 200 ppm [5] | mortality at 200 ppm [6]

CCC1=NOC(N(C=O)C(=O)c2ccc(C3=NO[C@@](c4cc(Cl)c(F)c(Cl)c4)(C(F)(F)F)C3)cc2C)C1 (stereo partly drawn) [Compound A022, 4-[(5S)-5-(3,5-dichloro-4-fluoro-phenyl)-5-(trifluoromethyl)-4H-isoxazol-3-yl]-N-(3-ethyl-4,5-dihydroisoxazol-5-yl)-N-formyl-2-methyl-benzamide]
≥ 80%: percent effect (mortality or growth inhibition) at 200 ppm [1] | mortality at 200 ppm [2] | mortality at 200 ppm [3] | percent control (mortality, anti-feedant effect or growth inhibition) at 200 ppm [4] | percent effect (mortality or growth inhibition) at 200 ppm [5] | mortality at 200 ppm [6]

CCOC1=NOC(NC(=O)c2ccc(C3=NO[C@@](c4cc(Cl)cc(C(F)(F)F)c4)(C(F)(F)F)C3)cc2C)C1 (stereo partly drawn) [Compound A047]
≥ 80%: percent effect (mortality or growth inhibition) at 200 ppm [1] | mortality at 200 ppm [2] | mortality at 200 ppm [3] | percent control (mortality, anti-feedant effect or growth inhibition) at 200 ppm [4] | percent effect (mortality or growth inhibition) at 200 ppm [5] | mortality at 200 ppm [6]

COC1=NOC(NC(=O)c2ccc(C3=NO[C@@](c4cc(Br)cc(C(F)(F)F)c4)(C(F)(F)F)C3)cc2C)C1 (stereo partly drawn) [Compound A044]
≥ 80%: percent effect (mortality or growth inhibition) at 200 ppm [1, 7] | mortality at 200 ppm [2, 8] | mortality at 200 ppm [3, 9] | percent control (mortality, anti-feedant effect or growth inhibition) at 200 ppm [4, 10] | percent effect (mortality or growth inhibition) at 200 ppm [5, 11] | mortality at 200 ppm [6, 12]

Cc1cc(C2=NO[C@@](c3cc(Cl)c(F)c(Cl)c3)(C(F)(F)F)C2)ccc1C(=O)NC1CC(Br)=NO1 (stereo partly drawn) [Compound A001, N-(3-bromo-4,5-dihydroisoxazol-5-yl)-4-[(5S)-5-(3,5-dichloro-4-fluoro-phenyl)-5-(trifluoromethyl)-4H-isoxazol-3-yl]-2-methyl-benzamide]
≥ 80%: percent effect (mortality or growth inhibition) at 200 ppm [1] | mortality at 200 ppm [2] | mortality at 200 ppm [3] | percent control (mortality, anti-feedant effect or growth inhibition) at 200 ppm [4] | percent effect (mortality or growth inhibition) at 200 ppm [5] | mortality at 200 ppm [6]

Cc1cc(C2=NO[C@@](c3cc(Cl)cc(C(F)(F)F)c3)(C(F)(F)F)C2)ccc1C(=O)N(C=O)C1CC(Cl)=NO1 (stereo partly drawn) [Compound A012, N-(3-chloro-4,5-dihydroisoxazol-5-yl)-4-[(5S)-5-[3-chloro-5-(trifluoromethyl)phenyl]-5-(trifluoromethyl)-4H-isoxazol-3-yl]-N-formyl-2-methyl-benzamide]
≥ 80%: percent effect (mortality or growth inhibition) at 200 ppm [1] | mortality at 200 ppm [2] | mortality at 200 ppm [3] | percent control (mortality, anti-feedant effect or growth inhibition) at 200 ppm [4] | percent effect (mortality or growth inhibition) at 200 ppm [5] | mortality at 200 ppm [6]

Cc1cc(C2=NO[C@@](c3cc(Cl)c(Cl)c(Cl)c3)(C(F)(F)F)C2)ccc1C(=O)NC1CC(OCc2ccccc2)=NO1 (stereo partly drawn) [Compound A110, N-(3-benzyloxy-4,5-dihydroisoxazol-5-yl)-2-methyl-4-[(5S)-5-(3,4,5-trichlorophenyl)-5-(trifluoromethyl)-4H-isoxazol-3-yl]benzamide]
≥ 80%: percent effect (mortality or growth inhibition) at 200 ppm [1] | mortality at 200 ppm [2] | mortality at 200 ppm [3] | percent control (mortality, anti-feedant effect or growth inhibition) at 200 ppm [4] | percent effect (mortality or growth inhibition) at 200 ppm [5] | mortality at 200 ppm [6]

Cc1cc(C2=NO[C@@](c3cc(Cl)c(Cl)c(Cl)c3)(C(F)(F)F)C2)ccc1C(=O)NC1CC(OCC(F)(F)F)=NO1 (stereo partly drawn) [Compound A129, 2-methyl-4-[(5S)-5-(3,4,5-trichlorophenyl)-5-(trifluoromethyl)-4H-isoxazol-3-yl]-N-[3-(2,2,2-trifluoroethoxy)-4,5-dihydroisoxazol-5-yl]benzamide]
≥ 80%: percent effect (mortality or growth inhibition) at 200 ppm [1] | mortality at 200 ppm [2] | mortality at 200 ppm [3] | percent control (mortality, anti-feedant effect or growth inhibition) at 200 ppm [4] | percent effect (mortality or growth inhibition) at 200 ppm [5] | mortality at 200 ppm [6]
